According to paper PMC6576746, “Rational discovery of dual-indication multi-target PDE/Kinase inhibitor for precision anti-cancer therapy using structural systems pharmacology” (PLoS Computational Biology, 2019):

Experiments:
ACVRL1 = ACVRL1 (Homo sapiens, UniProt P37023); test: biochemical; parameters: DiscoverX KinomeScan competition binding assay across human kinases; per cent of control at 10 and 100 uM; details: competition binding, % of control
Procedure, shortened: (§1)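 Binding is expressed as %control, normalised between positive and negative control signals. The compound (levosimendan) was tested at 10 μM and 100 μM in the DiscoverX KinomeScan competition binding format against human kinases.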

IRAK4 = IRAK4 (Homo sapiens, UniProt Q9NWZ3); test: biochemical; parameters: DiscoverX KinomeScan competition binding assay across human kinases; per cent of control at 10 and 100 uM; details: competition binding, % of control; read-out: Percent Control (100 uM Levosimendan)
Procedure, shortened: as §1

MAP3K2 = MAP3K2 (Homo sapiens, UniProt Q9Y2U5); test: biochemical; parameters: DiscoverX KinomeScan competition binding assay across human kinases; per cent of control at 10 and 100 uM; details: competition binding, % of control; read-out: Percent Control (100 uM Levosimendan)
Procedure, shortened: as §1

PDGFRB = PDGFRB (Homo sapiens, UniProt P09619); test: biochemical; parameters: DiscoverX KinomeScan competition binding assay across human kinases; per cent of control at 10 and 100 uM; details: competition binding, % of control
Procedure, shortened: as §1

PIK3CA(C420R) = PIK3CA(C420R) (Homo sapiens, UniProt P42336, C420R); test: biochemical; parameters: DiscoverX KinomeScan competition binding assay across human kinases; per cent of control at 10 and 100 uM; details: competition binding, % of control; read-out: Percent Control (100 uM Levosimendan)
Procedure, shortened: as §1

PIK3CD = PIK3CD (Homo sapiens, UniProt O00329); test: biochemical; parameters: DiscoverX KinomeScan competition binding assay across human kinases; per cent of control at 10 and 100 uM; details: competition binding, % of control; read-out: Percent Control (100 uM Levosimendan)
Procedure, shortened: as §1

[1] = molecular target: T1, RSK1(Kin.Dom.2-C-terminal) (Homo sapiens, UniProt Q15418); test: biochemical; parameters: DiscoverX KinomeScan competition binding assay across human kinases; per cent of control at 10 and 100 uM; details: competition binding, % of control; read-out: Percent Control (100 uM Levosimendan)
T1 construct: gene RPS6KA1; Kin.Dom.2-C-terminal
Procedure, shortened: as §1

TSSK3 = TSSK3 (Homo sapiens, UniProt Q96PN8); test: biochemical; parameters: DiscoverX KinomeScan competition binding assay across human kinases; per cent of control at 10 and 100 uM; details: competition binding, % of control; read-out: Percent Control (100 uM Levosimendan)
Procedure, shortened: as §1

ULK3 = ULK3 (Homo sapiens, UniProt Q6PHR2); test: biochemical; parameters: DiscoverX KinomeScan competition binding assay across human kinases; per cent of control at 10 and 100 uM; details: competition binding, % of control; read-out: Percent Control (100 uM Levosimendan)
Procedure, shortened: as §1

Hs 683 = test: cells; parameters: species or system panel of human cancer cell lines; Eurofins OncoPanel proliferation; nuclei count by high-content fluorescence imaging, 10-point dose response; details: Homo sapiens, Hs 683, 72 h, cell count, 3 days
Method: (§2) OncoPanel cancer cell proliferation assay was performed by Eurofins Panlabs, Inc. (Missouri, USA). Cancer cells were grown in RPMI 1640, 10% FBS, 2 mM L-alanyl-L-glutamine, 1 mM Na pyruvate, or a special medium. Cells were seeded into 384-well plates and incubated in a humidified atmosphere of 5% CO2 at 37°C. Compounds were added the day following cell seeding. At the same time, a time zero untreated cell plate was generated. After a 3-day incubation period, cells were fixed and stained to allow fluorescence imaging of nuclei. Levosimendan was serially diluted in half-log steps from 100 μM and assayed over 10 concentrations with a maximum assay concentration of 0.1% DMSO. Automated fluorescence microscopy was carried out using a Molecular Devices ImageXpress Micro XL high-content imager, and images were collected with a 4X objective. 16-bit TIFF images were acquired and analyzed with MetaXpress 5.1.0.41 software. Cell count EC50 is the test concentration at the curve inflection point (parameter C), or half the effective response. IC50 is the test compound concentration at 50% of the maximum possible response. GI50 is the concentration needed to reduce the observed growth by half (midway between the relative cell count at the curve maximum and at the time of compound addition). Activity area is an estimate of the integrated area above the response curve. Activity area values range from 0–10, where a value of zero indicates no inhibition of proliferation at all concentrations, and a value of 10 indicates complete inhibition of proliferation at all concentrations.

NTERA-2 cl.D1 = test: cells; parameters: species or system panel of human cancer cell lines; Eurofins OncoPanel proliferation; nuclei count by high-content fluorescence imaging, 10-point dose response; details: Homo sapiens, NTERA-2-cl-D1, 72 h, cell count, 3 days
Method: as §2

PSN-1 = test: cells; parameters: species or system panel of human cancer cell lines; Eurofins OncoPanel proliferation; nuclei count by high-content fluorescence imaging, 10-point dose response; details: Homo sapiens, PSN1, 72 h, cell count, 3 days
Method: as §2

KIT = KIT (Homo sapiens, UniProt P10721); test: KinomeScan competition binding assay; parameters: DiscoverX KinomeScan panel kinase; details: 10 μM levosimendan
[2] = read-out: Percent Control (10 uM Levosimendan)
[3] = read-out: Percent Control (100 uM Levosimendan)
[4] = 50% of maximum possible response

ACVRL1, sequence (P37023 whole entry): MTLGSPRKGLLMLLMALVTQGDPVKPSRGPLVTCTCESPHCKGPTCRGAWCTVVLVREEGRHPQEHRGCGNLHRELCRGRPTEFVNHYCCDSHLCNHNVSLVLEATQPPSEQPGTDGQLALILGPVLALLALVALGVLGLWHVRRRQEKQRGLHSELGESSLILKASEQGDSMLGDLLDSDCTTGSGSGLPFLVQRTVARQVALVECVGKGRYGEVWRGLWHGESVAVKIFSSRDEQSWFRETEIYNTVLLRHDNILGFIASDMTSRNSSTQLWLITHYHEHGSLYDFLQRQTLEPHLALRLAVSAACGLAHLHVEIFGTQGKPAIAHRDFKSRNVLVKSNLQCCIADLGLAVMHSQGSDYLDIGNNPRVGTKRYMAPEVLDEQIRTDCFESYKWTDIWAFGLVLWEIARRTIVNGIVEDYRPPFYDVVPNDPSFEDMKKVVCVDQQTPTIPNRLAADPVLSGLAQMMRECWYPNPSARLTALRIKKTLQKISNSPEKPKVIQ
PDGFRB, sequence (P09619 whole entry): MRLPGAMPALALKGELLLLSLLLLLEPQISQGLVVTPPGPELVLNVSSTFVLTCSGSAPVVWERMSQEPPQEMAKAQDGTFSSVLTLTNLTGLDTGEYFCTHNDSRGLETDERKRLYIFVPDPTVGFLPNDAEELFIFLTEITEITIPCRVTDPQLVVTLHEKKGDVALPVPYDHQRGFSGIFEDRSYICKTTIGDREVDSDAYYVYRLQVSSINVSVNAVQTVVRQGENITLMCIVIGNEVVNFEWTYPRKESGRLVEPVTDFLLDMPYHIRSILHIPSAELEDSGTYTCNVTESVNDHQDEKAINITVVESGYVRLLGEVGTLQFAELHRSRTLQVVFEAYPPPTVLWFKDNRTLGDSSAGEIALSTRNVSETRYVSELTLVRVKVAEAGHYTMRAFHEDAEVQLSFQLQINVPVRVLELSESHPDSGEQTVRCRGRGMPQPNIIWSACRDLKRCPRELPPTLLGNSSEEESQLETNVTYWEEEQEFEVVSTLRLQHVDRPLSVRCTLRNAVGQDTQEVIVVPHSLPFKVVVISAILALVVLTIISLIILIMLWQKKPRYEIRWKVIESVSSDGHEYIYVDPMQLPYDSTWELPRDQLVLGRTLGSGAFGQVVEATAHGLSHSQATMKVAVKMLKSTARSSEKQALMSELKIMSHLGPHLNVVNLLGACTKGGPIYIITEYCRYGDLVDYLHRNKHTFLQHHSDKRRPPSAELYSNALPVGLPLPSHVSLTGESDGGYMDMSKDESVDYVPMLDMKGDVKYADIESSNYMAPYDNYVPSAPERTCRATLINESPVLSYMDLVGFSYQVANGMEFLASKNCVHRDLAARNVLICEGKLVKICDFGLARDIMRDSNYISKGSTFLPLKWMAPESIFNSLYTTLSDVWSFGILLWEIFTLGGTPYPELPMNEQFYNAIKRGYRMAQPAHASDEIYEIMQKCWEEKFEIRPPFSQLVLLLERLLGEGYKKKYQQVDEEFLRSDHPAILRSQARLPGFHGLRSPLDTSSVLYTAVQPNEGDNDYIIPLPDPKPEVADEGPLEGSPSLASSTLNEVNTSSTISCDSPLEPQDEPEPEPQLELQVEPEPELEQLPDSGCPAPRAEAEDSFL
PIK3CA(C420R), sequence (P42336 whole entry C420R): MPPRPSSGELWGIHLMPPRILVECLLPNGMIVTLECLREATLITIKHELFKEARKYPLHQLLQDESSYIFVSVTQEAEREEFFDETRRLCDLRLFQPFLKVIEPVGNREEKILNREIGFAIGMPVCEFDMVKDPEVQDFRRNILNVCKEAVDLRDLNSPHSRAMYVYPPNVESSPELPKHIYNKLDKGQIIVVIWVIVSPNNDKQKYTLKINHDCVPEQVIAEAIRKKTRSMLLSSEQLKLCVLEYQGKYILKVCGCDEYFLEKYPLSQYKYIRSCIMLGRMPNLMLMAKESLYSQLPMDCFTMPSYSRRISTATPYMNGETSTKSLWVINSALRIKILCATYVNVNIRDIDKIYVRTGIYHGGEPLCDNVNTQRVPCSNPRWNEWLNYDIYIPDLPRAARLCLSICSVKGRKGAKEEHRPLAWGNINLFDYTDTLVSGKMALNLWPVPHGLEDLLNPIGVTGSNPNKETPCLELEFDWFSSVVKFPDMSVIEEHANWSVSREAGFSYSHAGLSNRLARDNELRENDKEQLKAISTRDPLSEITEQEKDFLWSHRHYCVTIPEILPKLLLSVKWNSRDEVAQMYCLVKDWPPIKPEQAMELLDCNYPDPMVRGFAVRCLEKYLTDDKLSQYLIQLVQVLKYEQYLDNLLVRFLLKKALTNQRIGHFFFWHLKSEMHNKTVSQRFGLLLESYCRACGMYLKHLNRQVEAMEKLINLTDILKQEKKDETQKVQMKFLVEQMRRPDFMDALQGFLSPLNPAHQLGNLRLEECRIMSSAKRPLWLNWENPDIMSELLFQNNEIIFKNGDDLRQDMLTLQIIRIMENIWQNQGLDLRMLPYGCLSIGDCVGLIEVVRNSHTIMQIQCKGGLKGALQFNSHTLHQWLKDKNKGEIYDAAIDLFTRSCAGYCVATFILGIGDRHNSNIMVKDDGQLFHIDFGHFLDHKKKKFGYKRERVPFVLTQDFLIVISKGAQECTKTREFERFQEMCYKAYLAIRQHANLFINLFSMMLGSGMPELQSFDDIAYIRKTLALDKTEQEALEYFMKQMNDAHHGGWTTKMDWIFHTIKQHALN
KIT, sequence (P10721 26-976): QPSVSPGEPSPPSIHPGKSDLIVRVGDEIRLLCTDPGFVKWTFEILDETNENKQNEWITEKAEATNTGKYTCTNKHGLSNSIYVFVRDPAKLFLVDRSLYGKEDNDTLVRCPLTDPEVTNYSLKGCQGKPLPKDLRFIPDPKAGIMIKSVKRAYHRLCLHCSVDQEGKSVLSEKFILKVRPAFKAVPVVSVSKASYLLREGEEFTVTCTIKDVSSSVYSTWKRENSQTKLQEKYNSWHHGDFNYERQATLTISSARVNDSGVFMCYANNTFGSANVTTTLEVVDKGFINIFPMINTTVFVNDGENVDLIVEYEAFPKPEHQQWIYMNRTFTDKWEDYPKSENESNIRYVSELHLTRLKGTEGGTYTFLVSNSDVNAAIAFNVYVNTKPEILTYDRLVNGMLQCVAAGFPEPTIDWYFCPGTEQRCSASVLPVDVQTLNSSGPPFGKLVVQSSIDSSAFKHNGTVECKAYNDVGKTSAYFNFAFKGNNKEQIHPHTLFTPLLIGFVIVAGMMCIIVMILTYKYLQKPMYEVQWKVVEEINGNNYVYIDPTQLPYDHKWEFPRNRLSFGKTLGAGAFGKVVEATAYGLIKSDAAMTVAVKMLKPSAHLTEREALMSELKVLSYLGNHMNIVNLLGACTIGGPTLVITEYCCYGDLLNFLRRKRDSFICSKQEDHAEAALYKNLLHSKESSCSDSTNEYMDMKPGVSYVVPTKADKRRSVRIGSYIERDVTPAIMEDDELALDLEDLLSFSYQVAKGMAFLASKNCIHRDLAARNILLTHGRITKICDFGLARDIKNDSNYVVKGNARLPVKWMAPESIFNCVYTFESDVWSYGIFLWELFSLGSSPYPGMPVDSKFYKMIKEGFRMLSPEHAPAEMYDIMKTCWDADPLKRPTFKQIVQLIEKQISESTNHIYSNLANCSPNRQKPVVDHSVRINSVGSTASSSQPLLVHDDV
ULK3, sequence (Q6PHR2 whole entry): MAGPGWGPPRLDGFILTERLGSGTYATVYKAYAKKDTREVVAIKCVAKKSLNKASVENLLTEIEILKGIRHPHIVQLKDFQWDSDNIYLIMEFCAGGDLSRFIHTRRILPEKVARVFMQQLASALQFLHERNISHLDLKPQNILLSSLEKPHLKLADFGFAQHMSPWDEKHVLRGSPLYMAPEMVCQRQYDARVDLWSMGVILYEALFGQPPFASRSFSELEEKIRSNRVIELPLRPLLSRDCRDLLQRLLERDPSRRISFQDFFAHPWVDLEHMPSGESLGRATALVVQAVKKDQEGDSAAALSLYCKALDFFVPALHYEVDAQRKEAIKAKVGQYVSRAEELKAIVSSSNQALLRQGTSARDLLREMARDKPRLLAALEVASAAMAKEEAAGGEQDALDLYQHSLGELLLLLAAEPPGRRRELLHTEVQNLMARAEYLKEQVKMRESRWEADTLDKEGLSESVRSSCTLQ
TSSK3, sequence (Q96PN8 whole entry): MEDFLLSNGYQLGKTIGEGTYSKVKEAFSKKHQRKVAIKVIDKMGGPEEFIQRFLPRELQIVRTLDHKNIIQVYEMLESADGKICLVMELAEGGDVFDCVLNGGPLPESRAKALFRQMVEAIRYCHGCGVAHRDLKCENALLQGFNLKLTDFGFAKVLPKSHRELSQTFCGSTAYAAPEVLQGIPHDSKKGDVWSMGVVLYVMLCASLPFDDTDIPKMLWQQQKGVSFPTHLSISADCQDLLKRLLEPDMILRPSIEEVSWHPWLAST
IRAK4, sequence (Q9NWZ3 whole entry): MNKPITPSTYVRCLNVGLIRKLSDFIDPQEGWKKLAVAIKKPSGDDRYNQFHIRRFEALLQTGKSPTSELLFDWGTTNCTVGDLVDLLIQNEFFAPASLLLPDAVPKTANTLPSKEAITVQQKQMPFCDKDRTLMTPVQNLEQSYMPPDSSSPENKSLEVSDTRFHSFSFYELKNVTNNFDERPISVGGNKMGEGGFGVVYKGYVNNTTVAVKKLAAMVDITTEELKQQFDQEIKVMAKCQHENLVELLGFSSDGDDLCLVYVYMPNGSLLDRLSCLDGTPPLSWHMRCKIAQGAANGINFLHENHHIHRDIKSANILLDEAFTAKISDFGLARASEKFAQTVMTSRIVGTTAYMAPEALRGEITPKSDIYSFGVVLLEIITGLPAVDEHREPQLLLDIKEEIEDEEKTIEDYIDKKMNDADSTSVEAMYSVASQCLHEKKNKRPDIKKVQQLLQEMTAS

Compound: C[C@@H]1CC(=O)NN=C1c1ccc(NN=C(C#N)C#N)cc1 [levosimendan]
- remaining binding at 10 µM (ACVRL1; [2]): 71%
- remaining binding at 100 µM (ACVRL1; [3]): 30%
- remaining binding at 100 µM (IRAK4): 80%
- remaining binding at 100 µM (MAP3K2): 86%
- remaining binding at 10 µM (PDGFRB; [2]): 58%
- remaining binding at 100 µM (PDGFRB; [3]): 12%
- remaining binding at 100 µM (PIK3CA(C420R)): 100%
- remaining binding at 100 µM (PIK3CD): 100%
- remaining binding at 100 µM [1]: 100%
- remaining binding at 100 µM (TSSK3): 100%
- remaining binding at 100 µM (ULK3): 77%
- IC50 (Hs 683; [4]): > 100 µM
- GI50 (Hs 683; corrected for time zero): > 100 µM
- EC50 (Hs 683; curve inflection point): 51.2 µM
- IC50 (NTERA-2 cl.D1; [4]): 11.8 µM
- GI50 (NTERA-2 cl.D1; corrected for time zero): 9.76 µM
- EC50 (NTERA-2 cl.D1; curve inflection point): 11.6 µM
- IC50 (PSN-1; [4]): 12.8 µM
- GI50 (PSN-1; corrected for time zero): 11.6 µM
- EC50 (PSN-1; curve inflection point): 11.8 µM
- percentage control at 10 μM (KIT): < 30.0%
